Test [1] deals with T1, Gal4-RORγ-LBD (Homo sapiens, UniProt P51449).
T1 construct: expressed in transfected cells
T1 sequence (P51449 269-508 limits assumed): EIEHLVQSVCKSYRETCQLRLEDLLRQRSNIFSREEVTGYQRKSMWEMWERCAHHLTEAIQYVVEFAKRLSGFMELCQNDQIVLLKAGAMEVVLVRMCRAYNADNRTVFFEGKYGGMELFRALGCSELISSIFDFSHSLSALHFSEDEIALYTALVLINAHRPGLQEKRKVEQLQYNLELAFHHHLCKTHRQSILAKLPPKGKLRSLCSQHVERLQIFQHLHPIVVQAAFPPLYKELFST
Kind of test: Gal4-RORγ Luciferase Reporter Assay in HEK-293T Cells. The class given is cell-based. Particulars: HEK-293 cells; for Gal4-RORγ Assay Max Response: maximum response. In outline:
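Max Response was taken as the upper plateau of a 4-parameter logistic fit of luciferase signal, normalized to 100 for wells without ursolic acid or compound. Transiently Gal4-RORγ-LBD/Gal4-luc transfected HEK-293 cells carrying […] ursolic acid were incubated with test compounds (0.2% DMSO) overnight at 37 °C and read with One-Glo.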
In general terms: A reporter such as luciferase makes a cellular process visible.

In test [2] the target is T2, RORγ-LBD (Homo sapiens, UniProt P51449).
T2 construct: made in house; host or cells: SF9 cells (baculovirus); used as diluted lysate
T2 sequence (P51449 269-508 limits assumed): T1 sequence (P51449 269-508 limits assumed)
Kind of test: RORγ-Ligand Binding Domain (LBD) TR-FRET Assay.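 For TR-FRET Assay Max Response: 665/615 nm signal ratio set to 100 without ursolic acid or test compound.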 The test is classed as biochemical. Particulars: for TR-FRET Assay Max Response: maximum response. The method in brief: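 Compounds, diluted in DMSO and then in assay buffer (1% DMSO final), were combined with His-tagged RORγ-LBD lysate at roughly 3 nM final and a 200 nM biotinylated SRC1 LXXLL peptide. Ursolic acid was included at 2 μM final. Coactivator recruitment was detected by TR-FRET.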
For orientation: TR-FRET usually uses a lanthanide donor and a delayed reading to cut background.

The mark [3] stands for this setting: luciferase reporter, in presence of ursolic acid.
[4] abbreviates: luciferase reporter, with ursolic acid.

On to `C/C(=C\c1ccc2c(c1)N(S(=O)(=O)c1cccc(C(F)(F)F)c1)CCC2(F)F)c1c(F)cccc1Cl` [Example 189, (E)-7-(2-(2-Chloro-6-fluorophenyl)prop-1-en-1-yl)-4,4-difluoro-1-((3-(trifluoromethyl)phenyl)sulfonyl)-1,2,3,4-tetrahydroquinoline], for which, in test [1] (setting [3]), the EC50 – broadly, the concentration giving half of the maximal effect – fell in the range of 0.5 to 5 µM and the “Gal4-RORγ Assay Max Response” value is listed as “** (a value in the range of greater than 90 to 150)”. In test [2] (RORγ-LBD TR-FRET assay), the EC50 is below 0.5 µM and the “TR-FRET Assay Max Response” value was “*** (a value in the range of greater than 150 to 200)”.

With `C/C(=C\c1ccc2c(c1)N(S(=O)(=O)c1cccc(C(F)(F)F)c1)C[C@@H](NC(=O)C(C)(C)O)C2)c1c(F)cccc1Cl` [Example 116G, (S,E)-N-(7-(2-(2-chloro-6-fluorophenyl)prop-1-en-1-yl)-1-((3-(trifluoromethyl)-phenyl)sulfonyl)-1,2,3,4-tetrahydroquinolin-3-yl)-2-hydroxy-2-methylpropanamide], in test [1] (setting [3]), the half-maximal effective concentration (EC50) was below 0.5 µM and the “Gal4-RORγ Assay Max Response” value is reported as “* (a value in the range of 30 to 90)”. Moreover, in test [2] (RORγ-LBD TR-FRET assay), the EC50 is below 0.5 µM and the “TR-FRET Assay Max Response” value was “*** (a value in the range of greater than 150 to 200)”.

Consider `CC(F)(F)c1cccc(Cl)c1/C=C/c1ccc2c(c1)N(S(=O)(=O)c1cc(C(F)(F)F)cnc1OCCO)C[C@H](CCC(=O)O)O2` [Example 89FI, (S,E)-3-(6-(2-chloro-6-(1,1-difluoroethyl)styryl)-4-((2-(2-hydroxyethoxy)-5-(trifluoromethyl)pyridin-3-yl)sulfonyl)-3,4-dihydro-2H-benzo[b][1,4]-oxazin-2-yl)propanoic acid], for which the concentration giving a half-maximal response (EC50) in test [1] (setting [4]) and in test [2] (RORγ-LBD TR-FRET) was below 0.5 µM in each case.

Consider `COC(=O)CC[C@H]1CN(S(=O)(=O)c2cccc(OC(F)F)c2)c2cc(/C=C/c3ccccc3OC)ccc2O1` [Example 89AZ, (S,E)-methyl 3-(4-((3-(difluoromethoxy)phenyl)sulfonyl)-6-(2-methoxystyryl)-3,4-dihydro-2H-benzo[b][1,4]oxazin-2-yl)propanoate], for which the half-maximal effective concentration (EC50) in test [1] (setting [4]) and in test [2] (RORγ-LBD TR-FRET) was below 0.5 µM throughout.

Consider `CCOc1nn(CC)cc1S(=O)(=O)N1C[C@H](CCC(=O)O)Oc2ccc(/C=C/c3nccs3)cc21` [Example 89Q, (S,E)-3-(4-((3-ethoxy-1-ethyl-1H-pyrazol-4-yl)sulfonyl)-6-(2-(thiazol-2-yl)vinyl)-3,4-dihydro-2H-benzo[b][1,4]oxazin-2-yl)propanoic acid], for which the EC50 in test [1] (setting [4]) and in test [2] (RORγ-LBD TR-FRET) was above 10 µM throughout.

With `CCOc1ncc(C(F)(F)F)cc1S(=O)(=O)N1C[C@H](CCC(=O)O)Oc2ccc(/C=C/c3c(OC)cccc3C(F)(F)F)cc21` [Example 89ET, (S,E)-3-(4-((2-ethoxy-5-(trifluoromethyl)pyridin-3-yl)sulfonyl)-6-(2-methoxy-6-(trifluoromethyl)styryl)-3,4-dihydro-2H-benzo[b][1,4]-oxazin-2-yl)propanoic acid], the EC50 in test [1] (setting [4]) and in test [2] (RORγ-LBD TR-FRET) was below 0.5 µM each time.

Regarding `COc1cc(S(=O)(=O)N2C[C@H](CNC(=O)c3cccc(C(=O)O)c3)Oc3ccc(/C=C(\C)c4c(F)cccc4Cl)cc32)ccc1F` [Example 135A, (S,E)-3-(((6-(2-(2-chloro-6-fluorophenyl)prop-1-en-1-yl)-4-((4-fluoro-3-methoxyphenyl)sulfonyl)-3,4-dihydro-2H-benzo[b][1,4]oxazin-2-yl)methyl)carbamoyl)benzoic acid], in test [1] (setting [3]), the EC50 was 0.5 to 5 µM and the “Gal4-RORγ Assay Max Response” value is listed as “* (a value in the range of 30 to 90)”. For the same compound, in test [2] (RORγ-LBD TR-FRET assay), the EC50 is below 0.5 µM and the “TR-FRET Assay Max Response” value is “*** (a value in the range of greater than 150 to 200)”.

Regarding `CCOc1nn(CC)cc1S(=O)(=O)N1C[C@H](CCC(=O)O)Oc2ccc(/C=C/c3ccccc3F)cc21` [Example 89AM, (S,E)-3-(4-((3-ethoxy-1-ethyl-1H-pyrazol-4-yl)sulfonyl)-6-(2-fluorostyryl)-3,4-dihydro-2H-benzo[b][1,4]oxazin-2-yl)propanoic acid], the concentration giving a half-maximal response (EC50) in test [1] (setting [4]) is above 10 µM; in test [2] (RORγ-LBD TR-FRET) it was below 0.5 µM.

`C/C(=C\c1cc2c(cc1F)O[C@@H](CCC(=O)O)CN2S(=O)(=O)c1cccc(C(F)(F)F)c1)c1c(F)cccc1Cl` [Example 42, (S,E)-3-(6-(2-(2-Chloro-6-fluorophenyl)prop-1-en-1-yl)-7-fluoro-4-((3-(trifluoromethyl)phenyl)sulfonyl)-3,4-dihydro-2H-benzo[b][1,4]oxazin-2-yl)propanoic acid]: the half-maximal effective concentration (EC50) in test [1] (setting [4]) was 0.5 to 5 µM; in test [2] (RORγ-LBD TR-FRET) it was below 0.5 µM.

In the case of `O=C(O)CCC[C@H]1CN(S(=O)(=O)c2cc(C(F)(F)F)cnc2OCCO)c2cc(/C=C/c3c(F)cccc3Cl)ccc2O1` [Example 195B, (S,E)-4-(6-(2-chloro-6-fluorostyryl)-4-((2-(2-hydroxyethoxy)-5-(trifluoro-methyl)pyridin-3-yl)sulfonyl)-3,4-dihydro-2H-benzo[b][1,4]-oxazin-2-yl)butanoic acid], the EC50 was below 0.5 µM in test [1] (ursolic acid present, luciferase readout) and below 0.5 µM in test [2] (with 2 μM ursolic acid (RORγ antagonist), highest test concentration 10 μM).

For the compound `C/C(=C\c1ccc2c(c1)N(S(=O)(=O)c1cccc(C(F)(F)F)c1)[C@H](C)[C@H](NC(=O)N(C)C)C2)c1c(F)cccc1Cl` [Example 146, 3-((2R,3R)-7-((E)-2-(2-Chloro-6-fluorophenyl)prop-1-en-1-yl)-2-methyl-1-((3-(trifluoromethyl)phenyl)sulfonyl)-1,2,3,4-tetrahydroquinolin-3-yl)-1,1-dimethylurea], the EC50 in test [1] (setting [3]) is above 10 µM. Also, in test [2] (RORγ-LBD TR-FRET assay), the EC50 was below 0.5 µM and the “TR-FRET Assay Max Response” value was “** (a value in the range of greater than 90 to 150)”.

As for `Cc1cc(O)cc(C)c1/C=C/c1ccc2c(c1)N(S(=O)(=O)c1cccc(C(F)(F)F)c1)C[C@H](CCC(=O)O)O2` [Example 89BG, (S,E)-3-(6-(4-hydroxy-2,6-dimethylstyryl)-4-((3-(trifluoromethyl)phenyl)sulfonyl)-3,4-dihydro-2H-benzo[b][1,4]oxazin-2-yl)propanoic acid], the EC50 in test [1] (setting [4]) is 0.5 to 5 µM; in test [2] (RORγ-LBD TR-FRET) it was below 0.5 µM.

Regarding `CCOc1nn(CC)cc1S(=O)(=O)N1C[C@H](CCC(=O)OC)Oc2ccc(/C=C/c3ncccc3Cl)cc21` [Example 89DJ, methyl (S,E)-3-(6-(2-(3-chloropyridin-2-yl)vinyl)-4-((3-ethoxy-1-ethyl-1H-pyrazol-4-yl)sulfonyl)-3,4-dihydro-2H-benzo[b][1,4]oxazin-2-yl)propanoate], the values for the EC50 in test [1] (setting [4]) and in test [2] (RORγ-LBD TR-FRET) were 0.5 to 5 µM and below 0.5 µM, respectively.

Regarding `CCOc1ncc(Cl)cc1S(=O)(=O)N1C[C@H](CCC(=O)OC)Oc2ccc(/C=C/c3c(Cl)cccc3C(F)(F)F)cc21` [Example 89CY, methyl (S,E)-3-(4-((5-chloro-2-ethoxypyridin-3-yl)sulfonyl)-6-(2-chloro-6-(trifluoromethyl)-styryl)-3,4-dihydro-2H-benzo-[b][1,4]oxazin-2-yl)propanoate], the EC50 in test [1] (setting [4]) is 0.5 to 5 µM; in test [2] (RORγ-LBD TR-FRET), below 0.5 µM.

For the compound `CCOc1nn(CC)cc1S(=O)(=O)N1C[C@H](CCC(=O)OC)Oc2ccc(/C=C(\C)c3c(Cl)cccc3C(F)(F)F)cc21` [Example 86AX, methyl (S,E)-3-(6-(2-(2-chloro-6-(trifluoromethyl)phenyl)prop-1-en-1-yl)-4-((3-ethoxy-1-ethyl-1H-pyrazol-4-yl)sulfonyl)-3,4-dihydro-2H-benzo[b][1,4]oxazin-2-yl)propanoate], the values for the EC50 in test [1] (setting [4]) and in test [2] (RORγ-LBD TR-FRET) were 0.5 to 5 µM and below 0.5 µM, respectively.

Take `O=C(O)CC[C@H]1CN(S(=O)(=O)c2cc(C(F)(F)F)cnc2OCCCO)c2cc(/C=C/c3c(F)cccc3Cl)ccc2O1` [Example 89FC, (S,E)-3-(6-(2-chloro-6-fluorostyryl)-4-((2-(3-hydroxypropoxy)-5-(trifluoromethyl)pyridin-3-yl)sulfonyl)-3,4-dihydro-2H-benzo[b][1,4]-oxazin-2-yl)propanoic acid]: the EC50 in test [1] (setting [4]) is 0.5 to 5 µM; in test [2] (RORγ-LBD TR-FRET), below 0.5 µM.

Turning to `CCOc1nn(CC)cc1S(=O)(=O)N1C[C@H](CCC(=O)O)Oc2ccc(/C=C/c3ccccc3OC(F)(F)F)cc21` [Example 89BA, (S,E)-3-(4-((3-ethoxy-1-ethyl-1H-pyrazol-4-yl)sulfonyl)-6-(2-(trifluoromethoxy)styryl)-3,4-dihydro-2H-benzo[b][1,4]oxazin-2-yl)propanoic acid], the EC50 is 0.5 to 5 µM in test [1] (setting [4]) and below 0.5 µM in test [2] (RORγ-LBD TR-FRET).

In the case of `COC(=O)CC[C@H]1CN(S(=O)(=O)c2cc(Cl)cnc2OCCO)c2cc(/C=C(\C)c3c(F)cccc3Cl)ccc2O1` [Example 69, Methyl (S,E)-3-(4-((5-chloro-2-(2-hydroxyethoxy)pyridin-3-yl)sulfonyl)-6-(2-(2-chloro-6-fluorophenyl)prop-1-en-1-yl)-3,4-dihydro-2H-benzo[b][1,4]oxazin-2-yl)propanoate], the EC50 in test [1] (setting [4]) is above 10 µM; in test [2] (RORγ-LBD TR-FRET), below 0.5 µM.
